From patent US9212387B2, “Method for detection of genes targeted by microRNA” (National University Corporation Okayama University, priority 2010, dated 2015)
{Biotin} = biotin label; {P} = phosphate

Tests used:
[1] = system: target candidate genes of let-7b (mRNA in cell extract); assay: Pull down of target gene mRNAs of let-7b with biotinylated miRNA, RT-PCR assay; format: binding, human; details: wash 400 mM KCl; for E2F2, TUSC2 and SRSF8 in pulled down mRNA: Example 9; for E2F6 and SOCS4 in pulled down mRNA: Example 8
Source text: In this example, in the detection method for target genes of miRNA of Example 1, target genes were detected through the use of let-7b as biotinylated miRNA. In accordance with the biotinylated miRNA of 1) of Example 1, biotinylated let-7b in which the sense strand had its 5′ end and 3′ end modified by phosphorylation and biotin, respectively, and the guide strand had only its 5′ end modified by phosphorylation and biotinylated miR-183 as a negative control were synthesized (FASMAC Co., Ltd.). A pull-down complex was obtained by the same technique as in Example 1 through the use of streptavidin beads (Streptavidin Mutein Matrix: Roche), and washed five times with a wash solution containing 400 mM KCl in the same manner as in Example 5. After that, RNA purification and cDNA synthesis were performed from the complex binding to the beads. The resulting cDNA was subjected to an RT-PCR assay with primers specific for the E2F6 and SOCS4-2 genes as target candidate genes of let-7b.
In this example, in the detection method for target genes of miRNA of Example 1, target genes were detected through the use of let-7b as biotinylated miRNA. In this example, the detection was performed by the same technique as in Example 8 except that biotinylated miR-29a was used as a negative control in place of biotinylated miR-183. Also in the case of the biotinylated miR-29a, one in which the sense strand had its 5′ end and 3′ end modified by phosphorylation and biotin, respectively, and the antisense strand had only its 5′ end modified by phosphorylation was produced (FASMAC Co., Ltd.). An RT-PCR assay was performed with primers specific for the PRDM2, E2F2, TUSC2, and SRSF8 genes as target candidate genes let-7b.

[2] = system: target gene mRNAs of miR-183 in HEK293 cell extract; assay: Pull down of target gene mRNAs of miR-183 with biotinylated miRNA from cell extract, RT-PCR assay; format: binding, human; details: for candidate genes whose mRNA was pulled down / RT-PCR bands: 14 kinds of target candidate genes of miR-183, HEK293 cell extract, streptavidin agarose beads; for target candidate genes of miR-183 (10 kinds) in pull-down complex: VIL2, PPP2CA, RREB1, BCL2L11, PDCD4, LATS2, RSU1, ING3, DNMT3A, BRMS1L, wash 400 mM KCl
AGO2 protein = biological target: T1, AGO2 protein (Homo sapiens, UniProt Q9UKV8); assay: AGO2 protein in pull-down complex, Western blot; format: binding; details: HEK293 cell extract; streptavidin agarose beads 1 hour
T1 construct: endogenous in cells; host or cells: HEK293 cell extract
T1 sequence (Q9UKV8 whole entry): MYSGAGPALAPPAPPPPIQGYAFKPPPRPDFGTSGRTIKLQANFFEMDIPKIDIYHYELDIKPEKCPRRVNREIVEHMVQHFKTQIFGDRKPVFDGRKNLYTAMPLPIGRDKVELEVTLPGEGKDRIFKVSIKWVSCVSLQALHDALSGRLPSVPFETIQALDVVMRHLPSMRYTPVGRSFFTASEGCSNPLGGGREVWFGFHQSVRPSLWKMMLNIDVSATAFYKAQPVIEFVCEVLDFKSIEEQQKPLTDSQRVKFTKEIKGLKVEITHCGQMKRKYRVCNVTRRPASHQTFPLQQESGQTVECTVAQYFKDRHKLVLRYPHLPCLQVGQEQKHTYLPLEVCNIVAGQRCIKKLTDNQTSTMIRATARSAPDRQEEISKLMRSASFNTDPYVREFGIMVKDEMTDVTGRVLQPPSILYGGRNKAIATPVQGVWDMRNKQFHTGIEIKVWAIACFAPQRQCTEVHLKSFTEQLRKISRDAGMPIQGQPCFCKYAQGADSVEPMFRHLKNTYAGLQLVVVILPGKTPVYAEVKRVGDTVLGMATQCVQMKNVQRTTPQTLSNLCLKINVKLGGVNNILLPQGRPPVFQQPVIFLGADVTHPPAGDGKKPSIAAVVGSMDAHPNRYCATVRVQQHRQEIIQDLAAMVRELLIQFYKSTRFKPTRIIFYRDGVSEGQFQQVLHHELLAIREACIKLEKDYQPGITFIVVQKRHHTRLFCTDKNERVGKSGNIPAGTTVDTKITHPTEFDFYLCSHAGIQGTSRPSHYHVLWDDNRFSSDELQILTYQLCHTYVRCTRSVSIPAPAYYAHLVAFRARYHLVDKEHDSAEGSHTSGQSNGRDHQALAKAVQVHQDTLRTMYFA
Method: Biotinylated miR-183 was produced by the same technique as that for the biotinylated miRNA of 1-1) of Example 1, and a cell extract of HEK293 cells was produced by the same technique as that for the cell extract of 1-2) of Example 1. Five tubes in each of which biotinylated double-stranded miR-183 ([…]) was added to 500 μl of the cell extract were produced, and were each subjected to a reaction at 4° C. for 30 minutes, and then at 30° C. for 60 minutes to provide a solution containing a biotinylated miRNA-target gene mRNA complex. To the solution containing the complex were added streptavidin agarose beads (Streptavidin Mutein Matrix, No. 03 708 152 001: Roche), and each tube was treated at 4° C. for 0 minutes, 2 minutes, 12 minutes, 24 minutes, or 1 hour. […]
The presence or absence of the AGO2 protein in the pull-down complex of Example 2 was confirmed. […] By the same technique as in Experimental Example 1-2, the sample was electrophoresed with 8% SDS-polyacrylamide gel, proteins were then blotted onto a PVDF membrane and subjected to a reaction through the use of an anti-AGO2 antibody (Anti Human AGO2 monoclonal antibody; Wako Pure Chemical Industries, Ltd., No. 016-20861), an anti-mouse antibody, and a Vecstatin ABC-AP kit (Vector Laboratories), and a fluorescence image was acquired with an image analyzer (LAS-1000; FUJIFILM). […]

[3] = system: target candidate genes of miR-19a (mRNA in cell extract); assay: Pull down of target gene mRNAs of miR-19a with biotinylated miRNA, RT-PCR assay; format: binding, human
Source text: In this example, in the detection method for target genes of miRNA of Example 1, target genes were detected through the use of miR-19a as biotinylated miRNA. In accordance with the biotinylated miRNA of 1-1) of Example 1, biotinylated miR-19a in which the sense strand had its 5′ end and 3′ end modified by phosphorylation and biotin, respectively, and the antisense strand had only its 5′ end modified by phosphorylation was were synthesized (FASMAC Co., Ltd.). The synthesized biotinylated miR-19a (400 pmole) and biotin (B4501: Sigma, […]) as a negative control were subjected to the treatments of 1-2) and 1-3) of Example 1. A pull-down complex was obtained from the resulting complex by the same technique as in 1-4) through the use of streptavidin beads (Streptavidin Mutein Matrix: Roche), and washed five times with a wash solution containing 400 mM KCl in the same manner as in Example 5. After that, the precipitate was treated with a 5 mM biotin solution (containing 5 mM biotin and an RNase inhibitor in the wash solution containing 400 mM KCl) at 42° C. for 5 minutes, and centrifuged in the same manner, and the pull-down complex (biotinylated miR-19a) was liberated from the streptavidin beads. […]
In this example, target genes were detected through the use of miR-19a as biotinylated miRNA in the detection method for target genes of miRNA of Example 1. […]

| Substance | E2F2, TUSC2 and SRSF8 in pulled down mRNA [1] | E2F6 and SOCS4 in pulled down mRNA [1] | candidate genes whose mRNA was pulled down / RT-PCR bands [2] | target candidate genes of miR-183 (10 kinds) in pull-down complex [2] | also measured |
| --- | --- | --- | --- | --- | --- |
| biotinylated miR-29a: Sense SEQ ID NO: 5, 5′-phosphorylated, 3′-biotinylated; antisense SEQ ID NO: 6; negative control (sense UAGCACCAUCUGAAAUCGGUUA; antisense ACCGAUUUCAGAUGGUGCCAAG; sense: RNA, 5' {P}, 3' {Biotin}, backbone not given here; antisense: RNA, 5' {P}, backbone not given here) | not contained | – | – | – | – |
| biotinylated let-7b: Sense SEQ ID NO: 3, 5′-phosphorylated, 3′-biotinylated; antisense SEQ ID NO: 4 | contained | contained | no band for any of the genes was detected | – | – |
| biotinylated miR-183: Sense SEQ ID NO: 1, 5′-phosphorylated, 3′-biotinylated; antisense SEQ ID NO: 2 with a 1-base mismatch (sense UAUGGCACUGGUAGAAUUCACU; antisense UGAAUUCUACCAGUGCCACAAG; sense: RNA, 5' {P}, 3' {Biotin}, backbone not given here; antisense: RNA, 5' {P}, backbone not given here) | – | not contained | 7 | contained | AGO2 protein (about 95 kDa) in pull-down complex (AGO2 protein): detected |
| biotinylated miR-19a: Sense SEQ ID NO: 7, 5′-phosphorylated, 3′-biotinylated; antisense SEQ ID NO: 8 (sense UGUGCAAAUCUAUGCAAAACUGA; antisense AGUUUUGCAUAGAUUUGCAUAAG; sense: RNA, 5' {P}, 3' {Biotin}, backbone not given here; antisense: RNA, 5' {P}, backbone not given here) | – | – | – | – | target candidate genes (9 genes) of miR-19a in pulled down mRNA ([3]; JAZF1, TNF, SMAD4, HIP1, HIC1, LRP12, TNFRSF12A, TUSC2, SIVA1, Example 11): contained; target candidate genes (7 kinds) of miR-19a in 5 mM biotin extract or on remaining beads ([3]; SOX4, INHBB, TP531NP1, PTP4A1, TNFAIP3, HIC1, CNKSR2, Example 10): present |
| natural type miRNA: Original mature miRNA type: sense SEQ ID NO: 1, antisense SEQ ID NO: 9 (sense UAUGGCACUGGUAGAAUUCACU; antisense GUGAAUUACCGAAGGGCCAUAA; sense: RNA, 5' {P}, 3' {Biotin}, backbone not given here; antisense: RNA, 5' {P}, backbone not given here) | – | – | – | contained | – |
